From US20190292189A1, “LIM KINASE INHIBITORS” (VIRONGY, LLC, priority 2016, published 2019)
Like-named read-outs stand apart in the source and are kept apart here.

Key:
ROCK-II = ROCK-II (Homo sapiens, UniProt O75116); assay: ROCK-II biochemical counter-screen
ROCK-I = ROCK-I (Homo sapiens, UniProt Q13464); assay: ROCK-I biochemical counter-screen; conditions: Table 6; read-out: Biochemical Inhibition IC50 (nM) ROCK-I
P450 2C9 = P450 2C9 (Homo sapiens, UniProt P11712); assay: P450 inhibition at 10 μM; type: in vitro ADME
Sequence of P450 2C9 (P11712 whole entry): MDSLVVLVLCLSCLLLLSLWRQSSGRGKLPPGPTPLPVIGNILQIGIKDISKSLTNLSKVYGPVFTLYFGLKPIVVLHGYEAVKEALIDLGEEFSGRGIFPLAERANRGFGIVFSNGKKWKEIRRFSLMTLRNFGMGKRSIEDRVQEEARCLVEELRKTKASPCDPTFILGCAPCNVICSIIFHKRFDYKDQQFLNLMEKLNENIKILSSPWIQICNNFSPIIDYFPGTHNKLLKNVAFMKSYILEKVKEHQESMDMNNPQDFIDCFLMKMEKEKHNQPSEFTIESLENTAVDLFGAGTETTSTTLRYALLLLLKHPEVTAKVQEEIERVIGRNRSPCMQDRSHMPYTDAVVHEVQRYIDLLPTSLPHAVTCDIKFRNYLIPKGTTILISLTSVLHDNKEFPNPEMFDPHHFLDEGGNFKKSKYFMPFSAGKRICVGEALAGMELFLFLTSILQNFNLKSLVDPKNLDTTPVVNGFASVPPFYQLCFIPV

P450 2D6 = P450 2D6 (Homo sapiens, UniProt P10635); assay: P450 inhibition at 10 μM; type: in vitro ADME
Sequence of P450 2D6 (P10635 whole entry): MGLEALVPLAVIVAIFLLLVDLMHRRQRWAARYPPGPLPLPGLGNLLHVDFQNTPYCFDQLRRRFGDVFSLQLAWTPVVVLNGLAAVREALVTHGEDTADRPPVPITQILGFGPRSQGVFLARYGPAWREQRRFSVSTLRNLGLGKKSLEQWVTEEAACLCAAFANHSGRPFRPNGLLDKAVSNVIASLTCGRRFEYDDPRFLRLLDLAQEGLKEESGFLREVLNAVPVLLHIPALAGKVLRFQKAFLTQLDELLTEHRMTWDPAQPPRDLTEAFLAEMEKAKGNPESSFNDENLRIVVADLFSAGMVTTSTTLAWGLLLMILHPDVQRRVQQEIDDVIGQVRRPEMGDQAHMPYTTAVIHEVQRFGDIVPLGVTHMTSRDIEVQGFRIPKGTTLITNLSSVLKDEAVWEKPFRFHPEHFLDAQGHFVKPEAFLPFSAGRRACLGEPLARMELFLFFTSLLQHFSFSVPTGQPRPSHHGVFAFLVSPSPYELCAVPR

P450 3A4 = P450 3A4 (Homo sapiens, UniProt P08684); assay: P450 inhibition at 10 μM; type: in vitro ADME
Sequence of P450 3A4 (P08684 whole entry): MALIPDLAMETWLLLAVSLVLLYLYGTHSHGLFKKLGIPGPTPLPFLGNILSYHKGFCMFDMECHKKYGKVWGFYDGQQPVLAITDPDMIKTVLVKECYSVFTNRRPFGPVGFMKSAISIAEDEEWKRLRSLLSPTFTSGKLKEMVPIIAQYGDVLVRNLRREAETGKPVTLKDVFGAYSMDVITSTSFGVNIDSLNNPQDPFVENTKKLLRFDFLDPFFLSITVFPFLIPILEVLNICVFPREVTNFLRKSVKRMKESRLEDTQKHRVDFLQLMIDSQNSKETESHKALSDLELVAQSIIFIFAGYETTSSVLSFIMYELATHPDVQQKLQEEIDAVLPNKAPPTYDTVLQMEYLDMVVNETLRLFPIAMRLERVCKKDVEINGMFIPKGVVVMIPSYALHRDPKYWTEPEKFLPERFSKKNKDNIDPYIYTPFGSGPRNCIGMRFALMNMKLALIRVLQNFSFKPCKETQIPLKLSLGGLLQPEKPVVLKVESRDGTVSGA

[1] = Microsomal stability, rat liver microsomes; type: in vitro ADME
[2] = system: cofilin phosphorylation in A7r5 cells; assay: In-cell Western assay of cofilin phosphorylation in A7r5 cells; type: cell-based
Experimental: A7r5 (15,000 cells/well) were plated in a clear-bottomed Packard View black 96-well plate in 100 μl of 10% FBS DMEM:F12 medium and were allowed to attach overnight. The next day, the cells were serum starved in 1% FBS DMEM medium for 2 hr and then treated with the compounds for 1 hr. […] Next day, they were washed twice with PBS-0.1% Tween 20 (PBST) washing solution for 5 min each at room temperature on the orbital shaker, followed by one wash with Licor Blocking Buffer containing 0.05% Tween-20 for 5 min on the shaker at RT. The cells were then incubated with secondary antibody goat anti-rabbit IR800 (1:500 dilution) for 1 hr at RT in the dark (covered the plate with foil) in Licor blocking buffer-containing Tween-20. Following this, cells were washed twice with PBST for 5 min each at room temperature and then once with Licor blocking buffer-containing 0.05% Tween-20. The wells were then incubated with ToPro 3 stain (nucleic acid staining), diluted 1:4000 in Licor blocking buffer or Licor blocking buffer with 0.05% Tween-20 for 30 min at room temperature in the dark. Finally the plates were washed twice with PBS and analyzed using the Odyssey LICOR Infrared Scanner.

[3] = Plasma pharmacokinetics studies on rats; conditions: for F (%) (po): po dosing 2 mg/kg; for Cmax: read-out: Cmax (iv)
Experimental: In vivo pharmacokinetics (PK) studies were conducted for selected compounds during the whole optimization at various stages in order to identify structural elements that are favorable for in vivo applications, and/or to evaluate the feasibility of optimized Limk inhibitors for animal studies.

PC-3 cells [4] = assay: In vitro invasion assay in PC-3 cells; type: cell-based; conditions: Homo sapiens, 48 hours, compared to the control
Experimental: Transwell chambers coated with GFR Matrigel (BD Biosciences) were used for measurement of cell invasion. The matrigel was solidified at 37° C. in a humidified incubator the day before the assay. PC3 cells (1×10^3 cells per well) were grown in serum-free RPMI1640 media in the upper side of the insert. The lower well was filled with RPMI 1640 supplemented with 10% FBS with a Limk inhibitor (1 μM). PC3 cells were incubated at 37° C. in a humidified atmosphere containing 5% CO2 for 48 h. Then transwell membrane was rinsed three times with PBS, and the cells were fixed in 2.5% EM grade glutaraldehyde for 15 min at room temperature (RT) with no shaking. After removing glutaraldehyde by aspirating, the cells were permeabilized with 0.5% Triton X-100 in PBS for 3 min at RT, and they were rinsed three times with PBS. Then, the cells were stained by Gill's hematoxylin No. 1 for 15 min at RT, and they were washed by distilled water for three times. To remove any residual stain, the cells were washed by acid alcohol for 3 minutes and then rinsed by distilled water twice. The cells were exposed with 0.04% NH4OH until a blue color is observed on the membrane and then rinsed by distilled water twice. The membranes were dried overnight, and the stained cells were visualized under Leica DMI3000B microscope.

PC-3 cells [5] = assay: In vitro migration (wound closure) assay in PC-3 cells; type: cell-based; conditions: Homo sapiens, PC-3, 24 h, read-out: inhibition of migration of PC-3 cells
Experimental: PC3 cells were cultured to confluence at >90% in 6 well culture dishes in 10% FBS RPMI1640 media the day before the assay. Lines were drawn with a marker on the bottom of the dishes. Using a sterile 1 mL pipet tip, the dishes were scratched three separate wounds through the cells moving perpendicular to the line drawn in the step above. The cells were rinsed with PBS twice very gently and added the RPMI1640 media, and the dishes were taken pictures using phase contrast under Leica DMI3000B microscope.

P450 1A2 = molecular target: T1, P450 1A2 (Homo sapiens, UniProt P05177)
T1 sequence (P05177 1-516): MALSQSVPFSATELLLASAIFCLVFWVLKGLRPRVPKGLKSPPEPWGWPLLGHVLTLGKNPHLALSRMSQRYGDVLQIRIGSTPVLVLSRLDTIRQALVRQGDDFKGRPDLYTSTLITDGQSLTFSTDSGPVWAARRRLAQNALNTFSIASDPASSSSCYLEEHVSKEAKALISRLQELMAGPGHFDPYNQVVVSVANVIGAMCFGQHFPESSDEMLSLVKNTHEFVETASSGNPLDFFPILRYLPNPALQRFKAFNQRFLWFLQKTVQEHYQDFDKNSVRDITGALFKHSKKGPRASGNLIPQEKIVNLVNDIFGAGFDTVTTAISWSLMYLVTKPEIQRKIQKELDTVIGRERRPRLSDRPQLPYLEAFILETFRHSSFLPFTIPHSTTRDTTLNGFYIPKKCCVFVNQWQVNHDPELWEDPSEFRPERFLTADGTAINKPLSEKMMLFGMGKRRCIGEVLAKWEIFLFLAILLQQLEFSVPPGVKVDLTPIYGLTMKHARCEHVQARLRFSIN

Limk1 [6] = molecular target: T2, Limk1 (Homo sapiens, UniProt P53667); assay: Limk1 biochemical assay (Reaction Biology, 10-dose IC50); parameters: His; purchased Reaction Biology Corporation; host or cells: insect cells
Target sequence in this assay (P53667 285-638): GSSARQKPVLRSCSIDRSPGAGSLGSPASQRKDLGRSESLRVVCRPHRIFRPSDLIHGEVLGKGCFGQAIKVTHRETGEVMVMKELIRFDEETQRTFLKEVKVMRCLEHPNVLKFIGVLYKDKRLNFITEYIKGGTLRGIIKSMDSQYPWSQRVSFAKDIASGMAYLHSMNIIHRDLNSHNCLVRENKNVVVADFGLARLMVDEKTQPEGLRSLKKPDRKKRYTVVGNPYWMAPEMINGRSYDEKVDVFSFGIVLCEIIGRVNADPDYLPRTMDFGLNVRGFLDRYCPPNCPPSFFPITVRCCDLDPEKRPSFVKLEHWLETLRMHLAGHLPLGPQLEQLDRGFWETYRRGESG

[7] = system: p-cofilin in CEM-SS T cells; assay: Cofilin phosphorylation cell assay in CEM-SS T cell lines; type: cell-based; conditions: Homo sapiens
Experimental: Cells were lysed in NuPAGE LDS Sample Buffer (Invitrogen) followed by sonication. Samples were heated at 90° C. for 10 minutes, separated by SDS-PAGE, and then transferred onto nitrocellulose membranes (Invitrogen). The membranes were washed in TBST for 3 minutes and then blocked for 30 minutes at room temperature with Starting Block blocking buffer (Pierce). […] The blots were washed three times for 15 minutes and scanned with Odyssey Infrared Imager (Li-cor Biosciences). The same blots were also stripped and reprobed with antibodies against GAPDH (Abcam) as a loading control.

[8] = Microsomal stability, human liver microsomes; type: in vitro ADME
[9] = IOP lowering on rat eyes, topical dosing; type: in vivo, Brown Norway rats
JNK3 = JNK3 (Homo sapiens, UniProt P53779); assay: JNK3 biochemical counter-screen; conditions: Table 6; read-out: Biochemical Inhibition IC50 (nM) JNK3
Sequence of JNK3 (P53779 whole entry, species assumed): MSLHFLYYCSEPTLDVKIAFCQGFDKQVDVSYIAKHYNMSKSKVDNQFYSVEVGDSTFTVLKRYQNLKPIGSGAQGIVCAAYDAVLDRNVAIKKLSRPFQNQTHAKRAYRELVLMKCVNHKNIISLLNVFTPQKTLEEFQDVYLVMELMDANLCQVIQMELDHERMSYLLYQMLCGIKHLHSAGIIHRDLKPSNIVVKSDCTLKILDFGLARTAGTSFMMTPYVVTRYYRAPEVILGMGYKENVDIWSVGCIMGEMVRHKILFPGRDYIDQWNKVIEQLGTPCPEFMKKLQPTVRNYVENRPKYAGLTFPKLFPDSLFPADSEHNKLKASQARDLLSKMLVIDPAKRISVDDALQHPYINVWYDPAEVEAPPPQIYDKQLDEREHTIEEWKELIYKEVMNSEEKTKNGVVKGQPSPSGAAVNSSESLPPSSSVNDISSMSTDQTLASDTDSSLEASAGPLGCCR

Limk1 [10] = molecular target: T2, Limk1; conditions: reported by a Japanese group; read-out: Limk1 inhibition IC50; cited from earlier work
Target sequence in this assay (P53667 whole entry, species assumed): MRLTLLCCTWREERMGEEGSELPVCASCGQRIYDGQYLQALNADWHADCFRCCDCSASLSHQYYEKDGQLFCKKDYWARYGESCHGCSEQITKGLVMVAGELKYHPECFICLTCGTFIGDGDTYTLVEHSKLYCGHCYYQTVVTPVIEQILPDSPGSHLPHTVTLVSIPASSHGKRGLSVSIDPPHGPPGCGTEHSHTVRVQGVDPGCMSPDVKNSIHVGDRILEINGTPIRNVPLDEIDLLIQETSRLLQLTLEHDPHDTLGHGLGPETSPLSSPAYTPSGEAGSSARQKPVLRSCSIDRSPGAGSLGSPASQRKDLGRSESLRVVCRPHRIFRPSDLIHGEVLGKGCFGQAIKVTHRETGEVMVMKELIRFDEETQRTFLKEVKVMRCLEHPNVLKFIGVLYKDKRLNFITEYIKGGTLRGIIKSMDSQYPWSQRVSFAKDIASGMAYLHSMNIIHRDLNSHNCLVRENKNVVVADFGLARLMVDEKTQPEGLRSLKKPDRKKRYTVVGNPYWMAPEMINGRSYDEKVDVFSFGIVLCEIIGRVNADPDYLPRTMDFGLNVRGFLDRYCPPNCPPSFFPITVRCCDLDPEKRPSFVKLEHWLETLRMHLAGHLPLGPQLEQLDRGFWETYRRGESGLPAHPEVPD

[11] = Table 4, means of ≥2 experiments, read-out: IC50 (nM) ROCK-II
[12] = Table 4, means of ≥2 experiments, read-out: IC50 (nM) Limk1
[13] = Table 5, means of ≥2 experiments, read-out: Biochemical IC50 (nM) ROCK-II
[14] = A7R5, A7r5 cells, read-out: Cofilin Phosphorylation In A7r5 Cells (IC50)
[15] = Table 5, means of ≥2 experiments, read-out: Biochemical IC50 (nM) Limk1

Sequence of ROCK-II (O75116 whole entry, species assumed): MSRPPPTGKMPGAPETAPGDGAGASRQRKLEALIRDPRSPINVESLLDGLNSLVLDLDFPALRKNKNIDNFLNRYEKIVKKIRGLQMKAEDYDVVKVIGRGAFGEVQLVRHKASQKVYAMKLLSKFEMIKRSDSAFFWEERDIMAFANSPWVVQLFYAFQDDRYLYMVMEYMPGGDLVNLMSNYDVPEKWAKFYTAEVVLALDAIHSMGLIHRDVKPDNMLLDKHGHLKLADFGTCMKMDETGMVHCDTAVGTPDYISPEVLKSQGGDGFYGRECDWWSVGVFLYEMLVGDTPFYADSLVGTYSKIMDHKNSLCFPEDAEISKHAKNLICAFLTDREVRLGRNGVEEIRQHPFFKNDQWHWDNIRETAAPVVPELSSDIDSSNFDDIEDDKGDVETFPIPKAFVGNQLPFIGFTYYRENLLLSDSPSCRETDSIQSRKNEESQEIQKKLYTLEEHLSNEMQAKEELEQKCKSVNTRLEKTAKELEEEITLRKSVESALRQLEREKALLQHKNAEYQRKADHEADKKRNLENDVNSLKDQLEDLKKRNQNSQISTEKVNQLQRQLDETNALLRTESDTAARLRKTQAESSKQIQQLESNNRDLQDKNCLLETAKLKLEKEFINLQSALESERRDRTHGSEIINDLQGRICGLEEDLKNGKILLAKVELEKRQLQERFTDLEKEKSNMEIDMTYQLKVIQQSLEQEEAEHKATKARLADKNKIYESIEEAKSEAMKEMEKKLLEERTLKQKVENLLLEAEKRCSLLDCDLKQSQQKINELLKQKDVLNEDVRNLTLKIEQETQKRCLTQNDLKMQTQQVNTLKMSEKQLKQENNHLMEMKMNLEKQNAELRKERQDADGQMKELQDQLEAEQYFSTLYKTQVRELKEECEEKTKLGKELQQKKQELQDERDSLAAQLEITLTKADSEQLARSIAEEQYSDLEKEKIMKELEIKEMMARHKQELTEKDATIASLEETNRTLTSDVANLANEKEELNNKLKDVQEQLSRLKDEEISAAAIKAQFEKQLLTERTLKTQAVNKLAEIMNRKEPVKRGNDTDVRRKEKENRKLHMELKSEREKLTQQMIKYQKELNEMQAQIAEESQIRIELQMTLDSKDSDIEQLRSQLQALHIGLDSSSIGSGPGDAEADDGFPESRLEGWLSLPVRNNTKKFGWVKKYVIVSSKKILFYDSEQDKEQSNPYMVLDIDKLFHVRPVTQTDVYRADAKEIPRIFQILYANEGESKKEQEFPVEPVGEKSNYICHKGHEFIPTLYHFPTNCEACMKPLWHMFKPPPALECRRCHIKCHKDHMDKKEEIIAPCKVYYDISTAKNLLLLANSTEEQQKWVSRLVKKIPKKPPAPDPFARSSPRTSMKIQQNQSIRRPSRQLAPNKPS

SMILES: Cc1c[nH]c2ncnc(-c3ccc(NC(=O)N(CCO)c4ccccc4Cl)cc3)c12 [Compound 18f, 1-(2-Chlorophenyl)-1-(2-hydroxyethyl)-3-(4-(5-methyl-7H-pyrrolo[2,3-d]pyrimidin-4-yl)phenyl)urea]
- IC50 (ROCK-II; [11]): 3340 nM
- IC50 (ROCK-I): 4390 nM
- P450 % inh. at 10 μM 2C9 (P450 2C9): 39%
- P450 % inh. at 10 μM 2D6 (P450 2D6): 1%
- P450 % inh. at 10 μM 3A4 (P450 3A4): 37%
- Microsomal Stability t1/2 (min) Rat [1]: 38 min
- IC50 ([2]; A7R5, read-out: Cofilin Phosphorylation In A7r5 Cells (IC50, nM)): 420 nM
- T1/2 (iv) ([3]; rat, in vivo, iv, 1 mg/kg): 1.5 h
- Yd (iv) ([3]; rat, in vivo, iv, 1 mg/kg): 0.7 L/kg
- AUC (iv) ([3]; rats, iv dosing 1 mg/kg): 5.1 µM·h
- Cl (iv) ([3]; rats, iv dosing 1 mg/kg): 7.7 mL/min/kg
- F (%) (po) ([3]; rats): 21%
- Cmax ([3]; rats, iv dosing 1 mg/kg): 4700 nM
- inhibition at 1 µM (PC-3 cells [4]): 83%
- inhibition at 0.1 µM (PC-3 cells [5]): 13%
- inhibition at 1 µM (PC-3 cells [5]): 76.1%
- inhibition at 10 µM (PC-3 cells [5]): 81%
- P450 % inh. at 10 μM 1A2 (P450 1A2): −4/39/1/37%
- IC50 (Limk1 [6]; [12]): 58 nM

SMILES: Cc1c[nH]c2ncnc(-c3ccc(NC(=O)N(CCN)c4ccc(Cl)cc4)cc3)c12 [Compound 18p, 1-(2-Aminoethyl)-1-(4-chlorophenyl)-3-(4-(5-methyl-7H-pyrrolo[2,3-d]pyrimidin-4-yl)phenyl)urea]
- IC50 (ROCK-II; [11]): 460 nM
- AUC (iv) ([3]; rats, iv dosing 1 mg/kg): 0.7 µM·h
- Cl (iv) ([3]; rats, iv dosing 1 mg/kg): 55.9 mL/min/kg
- T1/2 (iv) ([3]; rats, iv dosing 1 mg/kg): 5.1 h
- Cmax ([3]; rats, iv dosing 1 mg/kg): 1100 nM
- inhibition at 1 µM [7]: > 50%

SMILES: Cc1c[nH]c2ncnc(-c3ccc(NC(=O)N(CCN(C)C)c4ccc(Cl)cc4)cc3)c12 [Compound 18r, 1-(4-Chlorophenyl)-1-(2-(dimethylamino)ethyl)-3-(4-(5-methyl-7H-pyrrolo[2,3-d]pyrimidin-4-yl)phenyl)urea]
- IC50 (ROCK-II; [11]): > 10000 nM
- IC50 (ROCK-II; read-out: ROCK-II IC50): > 10000 nM
- AUC (iv) ([3]; rats, iv dosing 1 mg/kg): 0.6 µM·h
- Cl (iv) ([3]; rats, iv dosing 1 mg/kg): 42.2 mL/min/kg
- T1/2 (iv) ([3]; rats, iv dosing 1 mg/kg): 6.1 h
- Yd (iv) ([3]; rats, iv dosing 1 mg/kg): 17.1 L/kg
- F (%) (po) ([3]; rats): 0%
- Cmax ([3]; rats, iv dosing 1 mg/kg): 200 nM
- inhibition at 1 µM [7]: > 50%
- IC50 (Limk1 [6]; [12]): 20 nM
- IC50 (Limk1 [6]; read-out: Limk1 IC50): ~20 nM

SMILES: Cc1[nH]c2ncnc(-c3ccc(NC(=O)N(CCN(C)C)c4ccc(Cl)cc4)c(F)c3)c2c1C [Compound 18w, 1-(4-Chlorophenyl)-3-(4-(5,6-dimethyl-7H-pyrrolo[2,3-d]pyrimidin-4-yl)-2-fluorophenyl)-1-(2-(dimethylamino)ethyl)urea]
- IC50 (ROCK-II; [13]): > 20000 nM
- IC50 (ROCK-II; read-out: ROCK-II IC50): > 20000 nM
- P450 % inh. at 10 μM 2C9 (P450 2C9): −23%
- P450 % inh. at 10 μM 2D6 (P450 2D6): 20%
- P450 % inh. at 10 μM 3A4 (P450 3A4): −9%
- Microsomal Stability t1/2 (min) Human [8]: 19 min
- Microsomal Stability t1/2 (min) Rat ([1]; rat liver microsomes): 23 min
- IC50 [2, 14]: 320 nM
- AUC (iv) ([3]; rats, iv dosing 1 mg/kg): 3.0 µM·h
- Cl (iv) ([3]; rats, iv dosing 1 mg/kg): 14.2 mL/min/kg
- T1/2 (iv) ([3]; rats, iv dosing 1 mg/kg): 3.3 h
- Yd (iv) ([3]; rats, iv dosing 1 mg/kg): 1.5 L/kg
- Cmax ([3]; rats, iv dosing 1 mg/kg): 2400 nM
- maximal IOP decrease of the treated eye ([9]; 20 ul of […], from 1 to 4 hours, baseline 28 mmHg): ~6 mmHg
- IOP drop on rat eyes ([9]; topical, dose of 50 μg): > 20%
- P450 % inh. at 10 μM 1A2 (P450 1A2; 10 μM): 15%
- IC50 (Limk1 [6]; [15]): 19 nM

SMILES: COCCN(C(=O)Nc1ccc(-c2ncnc3[nH]c(C)c(C)c23)cc1F)c1ccc(Cl)cc1 [Compound 18x, 1-(4-Chlorophenyl)-3-(4-(5,6-dimethyl-7H-pyrrolo[2,3-d]pyrimidin-4-yl)-2-fluorophenyl)-1-(2-methoxyethyl)urea]
- IC50 (ROCK-II; [13]): > 20000 nM
- IC50 (ROCK-II; read-out: ROCK-II IC50): > 20000 nM
- IC50 (JNK3): > 10000 nM
- P450 % inh. at 10 μM 2C9 (P450 2C9): 50%
- P450 % inh. at 10 μM 2D6 (P450 2D6): 15%
- P450 % inh. at 10 μM 3A4 (P450 3A4): 52%
- Microsomal Stability t1/2 (min) Rat ([1]; rat liver microsomes): 13 min
- IC50 [2, 14]: 250 nM
- AUC (iv) ([3]; rats, iv dosing 1 mg/kg): 5.1 µM·h
- Cl (iv) ([3]; rats, iv dosing 1 mg/kg): 6.9 mL/min/kg
- T1/2 (iv) ([3]; rats, iv dosing 1 mg/kg): 3.4 h
- Yd (iv) ([3]; rats, iv dosing 1 mg/kg): 1.2 L/kg
- Cmax ([3]; rats, iv dosing 1 mg/kg): 3500 nM
- inhibition at 1 µM [7]: > 50%
- P450 % inh. at 10 μM 1A2 (P450 1A2; 10 μM): 23%
- IC50 (Limk1 [6]; [15]): 8 nM

SMILES: COc1c(C=O)c(O)cc2c1C(=O)c1ccccc1C2=O [Damnacanthal]
- IC50 (Limk1 [10]): ~800 nM
